Assay results reported in patent US11819491B2, “Dilutable formulations of cannabinoids and processes for their preparation” (Yissum Research Development Company of the Hebrew …, priority 2016, dated 2023).

Test: Stability of CBD in simulated gastric fluid (SGF)
Type: physicochemical
Conditions: 37° C.
Experimental: A medium of stimulating gastric fluid (SGF) was prepared by dissolving sodium chloride (0.2 w/v %) and hydrochloric acid (0.1M) in DDW, and incubated at 37° C.
For MeOH solution sodium dodecyl sulfate (1 w/v %) was added to the SGF. 500 ml of SGF mediums was contained in an appropriate Erlenmeyer flask. At time 0-1 ml of each CBD stock solution was added to the SGF. The mixture was vigorously shaken at a water bath warmed to 37° C. and immediately 1 ml of the solution was sampled and replaced with an equal volume of preheated SGF medium. Similarly, same volume was sampled at 5, 10, 15, 20, 30, 45, 60, 75, 90, 120, 150 and 180 minutes. Each 1 mL sample was immediately neutralized to a pH of 7 to 9, with 980 μL of 0.1M sodium hydroxide solution and 3 ml MeOH, and pH levels were tested. All samples were kept at 4° C. until HPLC analysis.
For MeOH solution and AX1 system additional samples were taken every 30 min and injected directly into the HPLC without further treatment. […] The measured CBD concentration was divided to the initial concentration (C/C0) at each time point.
In comparison, the CBD profile in SGF with a commercial product (‘RSHO’™—containing CBD dissolved in vegetable oil) and CBD dissolved in pure olive oil were evaluated.

C=C(C)[C@@H]1CCC(C)=C[C@H]1c1c(O)cc(CCCCC)cc1O [CBD in MeOH, cannabidiol]
Start of CBD degradation: 5 min | CBD left (after 2 hours): less than 4% | CBD degradation in SGF (in words) (up to 180 min): significant degradation over time | CBD decomposed (within 30 min): 68%
